Assay results reported in patent US20150342193A1, “Herbicidal Composition” (priority 2012, published 2015).

Legend:
Assay in all cases: greenhouse post-emergence treatment, herbicidal activity
HELAN = assay type: in vivo, Helianthus annuus
Description: (§1) The culture containers used were plastic pots containing loamy sand with approximately 2-3.0% of organic matter. The seeds of the test plants were sown separately for each species.
(§2) For the post-emergence treatment, the test plants were grown to a plant height of from 3 to 15 cm, depending on the plant habit, and only then treated with the active compounds which had been suspended or emulsified in water. To this end, the test plants were either sown directly, and grown in the same containers, or they were first grown separately as seedlings and transplanted into the test containers a few days prior to treatment.
(§3) Depending on the species, the plants were kept at 10-25° C. and 20-35° C., respectively. The test period extended over 2 to 4 weeks. During this time, the plants were tended and their response to the individual treatments was evaluated.
(§4) Evaluation was carried out using a scale from 0 to 100. 100 means no emergence of the plants, or complete destruction of at least the above-ground parts, and 0 means no damage or normal course of growth. A good herbicidal activity is given at values of at least 70, and very good herbicidal activity is given at values of at least 85.
(§5) In the examples below, using the method of S. R. Colby (1967) “Calculating synergistic and antagonistic responses of herbicide combinations”, Weeds 15, p. 22ff., the value E, which is expected if the activity of the individual active compounds is only additive, was calculated.
(§6) where X=percent activity using active compound A at an application rate a; Y=percent activity using active compound B at an application rate b; E=expected activity (in %) by A+B at application rates a+b.
(§7) where X=percent activity using active compound A at an application rate a; Y=percent activity using active compound B at an application rate b; Z=percent activity using active compound D at an application rate d; E=expected activity (in %) by A+B+D at application rates a+b+d.
(§8) If the value found experimentally is higher than the value E calculated according to Colby, a synergistic effect is present.
(§9) For preparation of the mixtures herbicides A were used in form of an aqueous solution comprising 22.5% by weight of the respective herbicide A. The herbicides B and D were used in form of the respective commercially available formulations as identified below. 1,5-dimethyl-6-thioxo-3-(2,2,7-trifluoro-3-oxo-4-(prop-2-ynyl)-3,4-dihydro-2H-benzo[b][1,4]oxazin-6-yl)-1,3,5-triazinane-2,4-dione (B.14) was used in form of 10% by weight suspension concentrate. If appropriate, the adjuvant DASH® HC was added to the mixtures.

ERICA = assay type: in vivo, Erigeron canadensis
Description: as §1, §2, §3, §4, §5, §6, §7, §8, §9

AMBEL = assay type: in vivo, Ambrosia artemisiifolia
Description: as §1, §2, §3, §4, §5, §6, §7, §8, §9

DIGSA = assay type: in vivo, Digitaria sanguinales
Description: as §1, §2, §3, §4, §5, §6, §7, §8, §9

ECHCG = assay type: in vivo, Echinochloa crus-galli
Description: as §1, §2, §3, §4, §5, §6, §7
(§10) If the value found experimentally is higher than the value E calculated according to Colby, a synergistic effect is present. […]

CHEAL = assay type: in vivo, Chenopodium album
Description: as §1, §2, §3, §4, §5, §6, §7, §10

ABUTH = assay type: in vivo, Abutilon theophrasti
Description: as §1, §2, §3, §4, §5, §6, §7, §10

BRADC = assay type: in vivo, Brachiaria decumbens
Description: as §1, §2, §3
(§11) Evaluation was carried out using a scale from 0 to 100. […]
(§12) In the examples below, using the method of S. R. Colby (1967) “Calculating synergistic and antagonistic responses of herbicide combinations”, Weeds 15, p. 22ff., the value E, which is expected if the activity of the individual active compounds is only additive, was calculated. […]
as §10

POLPE = assay type: in vivo, Polygonum persicaria
Description: as §1, §2, §3, §4, §5, §6, §7, §8, §9

COMBE = assay type: in vivo, Commelina benghalensis
Description: as §1, §2, §3, §11, §12, §10

PANDI = assay type: in vivo, Panicum dichotomiflorun
Description: as §1, §2, §3, §4, §5, §6, §7, §8, §9

ERBVI = assay type: in vivo, Eriochloa villosa; settings: Example 4 (title: +1% by weight DASH® HC)
Description: as §1, §2, §3, §11, §12, §10

PHBPU = assay type: in vivo, Pharbitis purpurea
Description: as §1, §2, §3, §4, §5, §6, §7, §8, §9

CYPES = assay type: in vivo, Cyperus esculentus; settings: Example 6 (title: +1% by weight DASH® HC)
Description: as §1, §2, §3, §11, §12, §10

PHACA = assay type: in vivo, Phalaris canariensis L.; settings: Example 10, 31.25 g/ha a.i.
Description: as §1, §2, §3, §11, §12, §10

BRAPP = assay type: in vivo, Urochloa platyphylla; settings: Example 10, 31.25 g/ha a.i.
Description: as §1, §2, §3, §11, §12, §10

[1] = Example 5 (title: +1% by weight DASH® HC), post-emergence, B.28 31.25 g/ha a.i.
[2] = Example 5 (title: +1% by weight DASH® HC); post-emergence; a1) 31.25 g/ha a.i.

## COc1c(Cl)ccc(Cl)c1C(=O)O [B.32, dicamba]
HELAN; Example 3, 60 g/ha a.i.
  herbicidal activity against HELAN found: 80%
ERICA; Example 3, 60 g/ha a.i.
  herbicidal activity against ERICA found: 95%
AMBEL; Example 3, post-emergence, 60 g/ha a.i.
  herbicidal activity against AMBEL found: 85%

## CCNc1nc(Cl)nc(NC(C)C)n1 [D.3, atrazine]
DIGSA; Example 9, 150 g/ha a.i.
  herbicidal activity against DIGSA found: 0%
ECHCG; Example 9, 150 g/ha a.i.
  herbicidal activity against ECHCG found: 0%
CHEAL; Example 9, 150 g/ha a.i.
  herbicidal activity against CHEAL found: 35%
ABUTH; Example 9, 150 g/ha a.i.
  herbicidal activity against ABUTH found: 60%

## O=C(O)CNCP(=O)(O)O [B.26, glyphosate]
BRADC; Example 1, 135 g/ha a.i.
  herbicidal activity against BRADC found: 80%
POLPE; Example 1, 135 g/ha a.i.
  herbicidal activity against POLPE found: 60%
AMBEL; Example 12, post-emergence, B.26 15 g/ha a.i.
  herbicidal activity against AMBEL found: 75%

## Cc1c(C(=O)c2cnn(C)c2O)ccc(S(C)(=O)=O)c1C1=NOCC1 [B.25, topramezone]
POLPE; Example 2, 12.5 g/ha a.i.
  herbicidal activity against POLPE found: 75%
HELAN; Example 2, 12.5 g/ha a.i.
  herbicidal activity against HELAN found: 80%
DIGSA; Example 2, 12.5 g/ha a.i.
  herbicidal activity against DIGSA found: 65%
DIGSA; Example 9, 12.5 g/ha a.i.
  herbicidal activity against DIGSA found: 70%
COMBE; Example 2, 12.5 g/ha a.i.
  herbicidal activity against COMBE found: 60%
ECHCG; Example 9, 12.5 g/ha a.i.
  herbicidal activity against ECHCG found: 40%
CHEAL; Example 9, 12.5 g/ha a.i.
  herbicidal activity against CHEAL found: 25%
ABUTH; Example 9, 25 g/ha a.i.
  herbicidal activity against ABUTH found: 90%

## CP(=O)(O)CCC(N)C(=O)O (stereo not shown) [B.27, glufosinate]
ERICA; Example 8 (title: +1% by weight DASH® HC), 100 g/ha a.i.
  herbicidal activity against ERICA found: 65%

## CC(C)N(C)S(=O)(=O)NC(=O)c1cc(-n2c(=O)cc(C(F)(F)F)n(C)c2=O)c(F)cc1Cl [B.12, saflufenacil]
PANDI; Example 4 (title: +1% by weight DASH® HC), post-emergence, 6.25 g/ha a.i.
  herbicidal activity against PANDI found: 95%
ERBVI; 6.25 g/ha a.i.
  herbicidal activity against ERBVI found: 80%

## CCOC(=O)C(Cl)Cc1cc(-n2nc(C)n(C(F)F)c2=O)c(F)cc1Cl (stereo not shown) [B.7, carfentrazone-ethyl]
AMBEL; Example 11, post-emergence, 15 g/ha a.i.
  herbicidal activity against AMBEL found: 75%
AMBEL; Example 12, post-emergence, B.7 68 g/ha a.i.
  herbicidal activity against AMBEL found: 70%

## Cc1ccc2c(c1)[C@H](Nc1nc(N)nc(C(C)F)n1)[C@@H](C)C2 (stereo partly shown) [B.28, indaziflam]
ERICA; Example 7 (title: +1% by weight DASH® HC), 75 g/ha a.i.
  herbicidal activity against ERICA found: 75%
PANDI; [1]
  herbicidal activity against PANDI found: 80%
PANDI; Example 6 (title: +1% by weight DASH® HC), post-emergence, 6.25 g/ha a.i.
  herbicidal activity against PANDI found: 60%
PHBPU; [1]
  herbicidal activity against PHBPU found: 98%
PHBPU; Example 7 (title: +1% by weight DASH® HC), post-emergence, 75 g/ha a.i.
  herbicidal activity against PHBPU found: 65%
CYPES; 6.25 g/ha a.i.
  herbicidal activity against CYPES found: 55%

## C/C=C1/CC2=C(C(=O)OC2=O)[C@H](CCC)[C@H](O)C(=O)C[C@@H]1O [a1), cornexistin]
BRADC; Example 1, 125 g/ha a.i.
  herbicidal activity against BRADC found: 50%
POLPE; Example 1, 125 g/ha a.i.
  herbicidal activity against POLPE found: 60%
POLPE; Example 2, 125 g/ha a.i.
  herbicidal activity against POLPE found: 60%
HELAN; Example 2, 125 g/ha a.i.
  herbicidal activity against HELAN found: 20%
HELAN; Example 3, 125 g/ha a.i.
  herbicidal activity against HELAN found: 20%
DIGSA; Example 2, 125 g/ha a.i.
  herbicidal activity against DIGSA found: 90%
DIGSA; Example 9, 31.25 g/ha a.i.
  herbicidal activity against DIGSA found: 25%
COMBE; Example 2, 125 g/ha a.i.
  herbicidal activity against COMBE found: 60%
ERICA; Example 3, 125 g/ha a.i.
  herbicidal activity against ERICA found: 40%
ERICA; Example 7 (title: +1% by weight DASH® HC), 31.25 g/ha a.i.
  herbicidal activity against ERICA found: 40%
ERICA; Example 8 (title: +1% by weight DASH® HC), 31.25 g/ha a.i.
  herbicidal activity against ERICA found: 20%
AMBEL; Example 3, post-emergence, 125 g/ha a.i.
  herbicidal activity against AMBEL found: 65%
AMBEL; Example 11, post-emergence, 62.5 g/ha a.i.
  herbicidal activity against AMBEL found: 90%
AMBEL; Example 12; post-emergence; a1) 15 g/ha a.i.
  herbicidal activity against AMBEL found: 35%
PANDI; Example 4 (title: +1% by weight DASH® HC), post-emergence, 62.5 g/ha a.i.
  herbicidal activity against PANDI found: 95%
PANDI; [2]
  herbicidal activity against PANDI found: 90%
PANDI; Example 6 (title: +1% by weight DASH® HC), post-emergence, 62.5 g/ha a.i.
  herbicidal activity against PANDI found: 95%
ERBVI; 62.5 g/ha a.i.
  herbicidal activity against ERBVI found: 90%
PHBPU; [2]
  herbicidal activity against PHBPU found: 70%
PHBPU; Example 7 (title: +1% by weight DASH® HC), post-emergence, 31.25 g/ha a.i.
  herbicidal activity against PHBPU found: 70%
CYPES; 62.5 g/ha a.i.
  herbicidal activity against CYPES found: 0%
ECHCG; Example 9, 31.25 g/ha a.i.
  herbicidal activity against ECHCG found: 30%
CHEAL; Example 9, 31.25 g/ha a.i.
  herbicidal activity against CHEAL found: 0%
ABUTH; Example 9, 31.25 g/ha a.i.
  herbicidal activity against ABUTH found: 60%
PHACA
  herbicidal activity against PHACA found: 25%
BRAPP
  herbicidal activity against BRAPP found: 25%
